Measured values as given in patent US7323485B2, “4-(substituted cycloalkylmethyl) imidazole-2-thiones, 4-(substituted cycloalkenylmethyl) imidazole-2-thiones, 4-(substituted cycloalkylmethyl) imidazol-2-ones and 4-(substituted cycloalkenylmethyl) imidazol-2-ones and related compounds” (Allergan, Inc., priority 2002, dated 2008).
Where two headings read alike, the source gives them in different places.

Experiments:
[1] = system: rats with ligated L5 and L6 spinal nerves; assay: Chung model of neuropathic pain (tactile allodynia, von Frey hairs); format: in vivo; conditions: Rattus norvegicus, 0.5 h, 30 min following drug administration, read-out: % Pain Reversal ± SEM; for inhibition in vivo at 0.001 mg/kg: 1 μg/kg i.p.; for inhibition in vivo at 0.003 mg/kg: 3 μg/kg i.p.
Description: A model in accordance with Kim and Chung 1992, Pain […], pp 355-363 (Chung model), for chronic pain (in particular peripheral neuropathy) involves the surgical ligation of the L5 (and optionally the L6) spinal nerves on one side in experimental animals. Rats recovering from the surgery gain weight and display a level of general activity similar to that of normal rats. However, these rats develop abnormalities of the foot, wherein the hindpaw is moderately everted and the toes are held together. More importantly, the hindpaw on the side affected by the surgery appears to become sensitive to pain from low-threshold mechanical stimuli, such as that producing a faint sensation of touch in a human, within about 1 week following surgery. This sensitivity to normally non-painful touch is called “tactile allodynia” and lasts for at least two months. The response includes lifting the affected hindpaw to escape from the stimulus, licking the paw and holding it in the air for many seconds. None of these responses is normally seen in the control group.
Rats are anesthetized before surgery. The surgical site is shaved and prepared either with betadine or Novacaine. Incision is made from the thoracic vertebra Xlll down toward the sacrum. Muscle tissue is separated from the spinal vertebra (left side) at the L4-S2 levels. The L6 vertebra is located and the transverse process is carefully removed with a small rongeur to expose the L4-L6 spinal nerves. The L5 and L6 spinal nerves are isolated and tightly ligated with 6-0 silk thread. The same procedure is done on the right side as a control, except no ligation of the spinal nerves is performed.
A complete hemostasis is confirmed, then the wounds are sutured. A small amount of antibiotic ointment is applied to the incised area, and the rat is transferred to the recovery plastic cage under a regulated heat-temperature lamp. On the day of the experiment, at least seven days after the surgery, typically six rats per test group are administered the test drugs by intraperitoneal (i.p.) injection or oral gavage. For i.p. injection, the compounds are formulated in approximately 10 to 50% DMSO and given in a volume of 1 ml/kg body weight.
Tactile allodynia is measured prior to and 30 minutes after drug administration using von Frey hairs that are a series of fine hairs with incremental differences in stiffness. Rats are placed in a plastic cage with a wire mesh bottom and allowed to acclimate for approximately 30 minutes. The von Frey hairs are applied perpendicularly through the mesh to the mid-plantar region of the rats' hindpaw with sufficient force to cause slight buckling and held for 6-8 seconds. The applied force has been calculated to range from 0.41 to 15.1 grams. If the paw is sharply withdrawn, it is considered a positive response. A normal animal will not respond to stimuli in this range, but a surgically ligated paw will be withdrawn in response to a 1-2 gram hair. The 50% paw withdrawal threshold is determined using the method of Dixon, W. J., Ann. Rev. Pharmacol. Toxicol. 20:441-462 (1980). The post-drug threshold is compared to the pre-drug threshold and the percent reversal of tactile sensitivity is calculated based on a normal threshold of 15.1 grams. The results are expressed in percent (%) MPE, where the MPE value reflects the percentage reversal of pain threshold to that of a normal animal (100%). Table 3 below indicates results of this test with Compounds 1, 7 and 29 of the invention, administered i.p. and in oral doses.

male Sprague-Dawley rats = assay: Sedative activity (exploratory behavior); format: in vivo, rat; conditions: intraperitoneally, up to a dose of 1 mg/kg
Protocol: To test sedation, six male Sprague-Dawley rats are given up to 3 mg/kg of the test compound in a saline or DMSO vehicle by intraperitoneal injection (i.p.). Sedation is graded 30 minutes following administration of the drug by monitoring locomotor skills as follows.
The Sprague-Dawley rats are weighed and 1 ml/kg body weight of an appropriate concentration (ie. 3 mg/ml for a final dose of 3 mg/kg) drug solution is injected intraperitoneally. Typically the test compound is formulated in approximately 10 to 50% DMSO. The results are compared to controls that are injected with 1 ml/kg saline or 10 to 50% DMSO. Rat activity is then determined 30 minutes after injection of the drug solution. Rats are placed in a dark covered chamber and a digicom analyzer (Omnitech Electronic) quantitates their exploratory behavior for a five-minute period. The machine records each time the rat interrupts an array of 32 photoelectric beams in the X and Y orientation.

Structure (SMILES) | inhibition in vivo at 0.001 mg/kg ([1]; ip) [%] | inhibition in vivo at 0.003 mg/kg ([1]; ip) [%] | inhibition in vivo at 0.01 mg/kg ([1]; ip, 10 μg/kg i.p.) [%] | inhibition in vivo at 0.03 mg/kg ([1]; ip, 30 μg/kg i.p.) [%] | sedative effect (male Sprague-Dawley rats) | inhibition in vivo at 0.1 mg/kg ([1]; ip, 100 μg/kg i.p.) [%] | inhibition in vivo at 0.01 mg/kg ([1]; po, 10 μg/kg p.o.) [%] | inhibition in vivo at 0.03 mg/kg ([1]; po, 30 μg/kg p.o.) [%] | inhibition in vivo at 0.1 mg/kg ([1]; po, 100 μg/kg p.o.) [%] | inhibition in vivo at 0.3 mg/kg ([1]; po, 300 μg/kg p.o.) [%] | inhibition in vivo at 0.3 mg/kg ([1]; ip, 300 μg/kg i.p.) [%] | inhibition in vivo at 1 mg/kg ([1]; po, 1000 μg/kg p.o.) [%]
O=C1c2ccccc2CCC1Cc1c[nH]c(=S)[nH]1 (single isomer, unassigned) [Compound 23, 2-(2-thioxo-2,3-dihydro-1H-imidazol-4-ylmethyl)-3,4-dihydro-2H-naphthalen-1-one] | 0.7 ± 0.8 | 59 ± 5.8 | 74 ± 6.1 | 69 ± 10 | no sedative effect |  |  |  |  |  |  | 
S=c1[nH]cc(CC2CCc3ccccc32)[nH]1 (centres unmarked) [Compound 7, 4-indan-1-ylmethyl-1,3-dihydro-imidazole-2-thione] | 1 ± 1 | 23 ± 4 | 58 ± 8 | 85 ± 6 |  | 89 ± 7 | 1 ± 1 | 56 ± 10 | 58 ± 8 | 61 ± 6 |  | 
S=c1[nH]cc(CC2CC=CC2)[nH]1 [Compound 18, 4-cyclopent-3-enylmethyl-1,3-dihydro-imidazole-2-thione] |  |  | 5 ± 2.5 | 35 ± 5.2 | no sedative effect | 72 ± 6.6 |  | 1 ± 2 | 68 ± 4.4 | 82 ± 5.9 | 71 ± 6.4 | 82 ± 8.1
S=c1[nH]cc(CC2CCc3sccc3C2)[nH]1 (centres unmarked) [Compound 29, 4-(4,5,6,7-tetrahydro-benzo[b]thiophen-5-ylmethyl)-1,3-dihydro-imidazole-2-thione] |  |  | 17 ± 3 | 61 ± 11 |  | 14 ± 2 |  |  |  |  |  | 
O=c1[nH]cc(CC2CCC3=C2CCC3)[nH]1 (centres unmarked) [Compound 41, 4-(1,2,3,4,5,6-Hexahydro-pentalen-1-ylmethyl)-1,3-dihydro-imidazol-2-one] |  |  | 3 ± 1.6 | 71 ± 2.8 |  | 13 ± 1 |  |  |  |  |  | 
CC1=C(C)C(Cc2c[nH]c(=O)[nH]2)CC1 (centres unmarked) [Compound 44, 4-(2,3-dimethyl-cyclopent-2-enylmethyl)-1,3-dihydro-imidazol-2-one] | 0.5 ± 2.9 | 24 ± 4.6 | 46 ± 9.1 | 62 ± 9.6 |  | 82 ± 5.8 |  |  |  |  |  | 
O=c1[nH]cc(CC2CCc3cc(F)ccc32)[nH]1 (centres unmarked) [Compound 49, 4-(5-fluoro-indan-1-ylmethyl)-1,3-dihydro-imidazol-2-one] | 2.3 ± 1.3 | 23 ± 3.8 | 39 ± 7.7 | 72 ± 8.2 | no sedative effect | 80 ± 6.5 |  | 43 ± 7.1 | 68 ± 4.8 | 74 ± 6.8 |  | 
O=c1[nH]cc(C[C@H]2CCc3cc(F)ccc32)[nH]1 [Compound 61, R-(+)-4-(5-fluoro-indan-1-ylmethyl)-1,3-dihydro-imidazol-2-one] |  |  |  |  | no sedative effect |  |  |  |  |  |  | 
